{"source": "patent US5627152A", "about": "“Method for increasing bodyweight” (Telluride Pharmaceutical Corporation, priority 1995, dated 1997)", "key": {"[1]": {"experiment": "Oral glutathione capsules in healthy subjects: bodyweight and percent bodyfat by the caliper method", "assay_type": "in vivo, human", "conditions": "for percentage bodyfat at end of treatment: caliper method", "method": "A healthy subject who wished to gain more weight in the form of lean muscle tissue, was treated for five weeks with one capsule containing 250 mg glutathione four times daily resulting in a total daily dosage of 1000 mg glutathione.\nA healthy subject who wished to add bodyweight in the form of lean muscle, was treated for seven weeks with one capsule containing 500 mg of glutathione, four times per day. The totally daily dose was 2,000 mg of glutathione.\nA […] healthy male subject who wished to add bodyweight in the form of lean muscle, was treated for seven weeks with two capsule of 500 mg of glutathione, three times per day. The totally daily dose was 3,000 mg of glutathione.\nA healthy subject who wished to add bodyweight in the form of lean muscle was treated for six weeks with two capsules containing 500 mg of glutathione, twice daily. The totally daily dose was 2,000 mg of glutathione."}, "guinea pigs": {"system": "guinea pigs", "conditions": "high doses; cited from earlier work"}}}
{"smiles": "N[C@@H](CCC(=O)N[C@@H](CS)C(=O)NCC(=O)O)C(=O)O", "note": "[glutathione, -L-glutamyl-cysteinylglycine]", "values": [{"measurement": "percentage bodyfat at end of treatment", "setting": "[1]; Example 1: 1000 mg/day, five weeks, start 20.1%", "result": 18.6, "unit": "%"}, {"measurement": "fat at end of treatment", "setting": "[1]; Example 1: 1000 mg/day, five weeks, start 25 pounds", "result": 24, "unit": "pounds"}, {"measurement": "muscle, bone and connective tissue at end of treatment", "setting": "[1]; Example 1: 1000 mg/day, five weeks, start 100 pounds", "result": 105, "unit": "pounds"}, {"measurement": "percent change in lean bodyweight (gain)", "setting": "[1]; Example 1: 1000 mg/day, five weeks, without a change in diet or exercise regimen", "result": 5, "unit": "%"}, {"measurement": "bodyweight at end of treatment", "setting": "[1]; Example 1: healthy person, 250 mg capsule four times daily (1000 mg/day), five weeks, start 125 pounds", "result": 129, "unit": "pounds"}, {"measurement": "percentage bodyfat at end of treatment", "setting": "[1]; Example 2: 2,000 mg/day, seven weeks, start 24.9%", "result": 22.3, "unit": "%"}, {"measurement": "fat at end of treatment", "setting": "[1]; Example 2: 2,000 mg/day, seven weeks, start 55 pounds", "result": 55, "unit": "pounds"}, {"measurement": "muscle, bone and connective tissue at end of treatment", "setting": "[1]; Example 2: 2,000 mg/day, seven weeks, start 165 pounds", "result": 193, "unit": "pounds"}, {"measurement": "percent change in lean body weight", "setting": "[1]; Example 2: 2,000 mg/day, seven weeks, without a change in diet or exercise regimen", "result": 17, "unit": "%"}, {"measurement": "bodyweight at end of treatment", "setting": "[1]; Example 2: healthy person, 500 mg capsule four times per day (2,000 mg/day), seven weeks, start 220 pounds", "result": 248, "unit": "pounds"}, {"measurement": "percentage bodyfat at end of treatment", "setting": "[1]; Example 3: 3,000 mg/day, seven weeks, start 18.5%", "result": 15.1, "unit": "%"}, {"measurement": "percent change in lean body weight", "setting": "[1]; Example 3: 3,000 mg/day, seven weeks, no change in diet or exercise regimen", "result": 24.2, "unit": "%"}, {"measurement": "fat at end of treatment", "setting": "[1]; Example 3: 3,000 mg/day, seven weeks, start 38 pounds", "result": 36, "unit": "pounds"}, {"measurement": "muscle, bone and connective tissue at end of treatment", "setting": "[1]; Example 3: 3,000 mg/day, seven weeks, start 165 pounds", "result": 205, "unit": "pounds"}, {"measurement": "bodyweight at end of treatment", "setting": "[1]; Example 3: healthy person, two 500 mg capsules three times per day (3,000 mg/day), seven weeks, start 203 pounds", "result": 241, "unit": "pounds"}, {"measurement": "percentage bodyfat at end of treatment", "setting": "[1]; Example 4: 2,000 mg/day, six weeks, start 17.2%", "result": 14.9, "unit": "%"}, {"measurement": "fat at end of treatment", "setting": "[1]; Example 4: 2,000 mg/day, six weeks, start 36 pounds", "result": 36, "unit": "pounds"}, {"measurement": "muscle, bone and connective tissue at end of treatment", "setting": "[1]; Example 4: 2,000 mg/day, six weeks, start 176 pounds", "result": 203, "unit": "pounds"}, {"measurement": "percent change in lean body weight", "setting": "[1]; Example 4: 2,000 mg/day, six weeks, with a change in diet or exercise regimen (so in the source)", "result": 15.3, "unit": "%"}, {"measurement": "bodyweight at end of treatment", "setting": "[1]; Example 4: healthy person, two 500 mg capsules twice daily (2,000 mg/day), six weeks, start 212 pounds", "result": 239, "unit": "pounds"}, {"measurement": "effect on bodyweight (cachexia)", "setting": "guinea pigs", "result": "promote cachexia"}]}
